Columns and labels:
Homo sapiens = species: Homo sapiens; experiment: Selectivity ratio of IC50 for recombinant human ACC1 to IC50 for recombinant human ACC2
Cytochrome P450 2C9 = Cytochrome P450 2C9 (Homo sapiens, UniProt P11712); experiment: Inhibition of CYP2C9 (unknown origin); type: ADME
Cytochrome P450 3A4 = Cytochrome P450 3A4 (Homo sapiens, UniProt P08684); experiment: Inhibition of CYP3A4 (unknown origin); type: ADME
[1] = Metabolic stability in rat liver microsomes assessed as parent compound remaining after 30 mins; type: ADME, microsome; settings: read-out: Stability
Acetyl-CoA carboxylase 1 = Acetyl-CoA carboxylase 1 (Homo sapiens, UniProt Q13085); experiment: Inhibition of recombinant human ACC1 assessed as reduction in conversion of acetyl-CoA to malonyl-CoA incubated for 1 to 3 hrs with substrate by MALDI-TOF-MS analysis
Cytochrome P450 2D6 = Cytochrome P450 2D6 (Homo sapiens, UniProt P10635); experiment: Inhibition of CYP2D6 (unknown origin); type: ADME
[2] = Metabolic stability in human liver microsomes assessed as parent compound remaining after 30 mins; type: ADME, microsome; settings: read-out: Stability
Acetyl-CoA carboxylase 2 = Acetyl-CoA carboxylase 2 (Homo sapiens, UniProt O00763); experiment: Inhibition of recombinant human ACC2 assessed as reduction in conversion of acetyl-CoA to malonyl-CoA incubated for 1 to 3 hrs with substrate by MALDI-TOF-MS analysis
Cytochrome P450 1A2 = biological target: T1, Cytochrome P450 1A2 (Homo sapiens, UniProt P05177); experiment: Inhibition of CYP1A2 (unknown origin); type: ADME
T1 sequence (P05177 whole entry): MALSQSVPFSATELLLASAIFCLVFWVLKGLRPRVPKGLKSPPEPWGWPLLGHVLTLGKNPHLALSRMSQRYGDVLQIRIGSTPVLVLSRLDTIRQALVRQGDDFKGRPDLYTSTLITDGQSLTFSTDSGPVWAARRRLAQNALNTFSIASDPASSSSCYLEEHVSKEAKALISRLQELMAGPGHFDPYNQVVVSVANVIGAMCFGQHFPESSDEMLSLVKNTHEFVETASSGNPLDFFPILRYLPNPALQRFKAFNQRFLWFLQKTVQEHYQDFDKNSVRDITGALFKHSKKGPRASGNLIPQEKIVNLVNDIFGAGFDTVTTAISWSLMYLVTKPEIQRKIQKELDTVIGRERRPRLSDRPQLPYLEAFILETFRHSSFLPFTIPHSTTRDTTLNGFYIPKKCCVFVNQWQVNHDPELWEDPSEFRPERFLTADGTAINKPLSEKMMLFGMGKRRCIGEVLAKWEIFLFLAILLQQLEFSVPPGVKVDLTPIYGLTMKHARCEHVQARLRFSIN

Cytochrome P450 2C19 = Cytochrome P450 2C19 (Homo sapiens, UniProt P33261); experiment: Inhibition of CYP2C19 (unknown origin); type: ADME
[3] = AUC in C57BL/6 mouse at 2.5 mg/kg, po; type: ADME, organism-based; settings: in vivo
Rattus norvegicus [4] = experiment: Toxicity in rat assessed as abnormal clinical signs at 50 mg/kg/day, po administered for 4 consecutive days; type: organism-based; settings: in vivo
[5] = AUC (0 to 24 hrs) in rat at 50 mg/kg/day, po administered for 4 consecutive days measured on day 1; type: ADME, organism-based; set-up: dose 50 mg/kg/day, time < 24 hr, route oral; settings: in vivo
[6] = Plasma concentration in C57BL/6 mouse at 1 mg/kg, po measured at 6 hrs post dose by LC-MS analysis; type: ADME, organism-based
[7] = Cmax in rat at 50 mg/kg/day, po administered for 4 consecutive days measured on day 1; type: ADME, organism-based; set-up: dose 50 mg/kg/day, route oral; settings: in vivo
[8] = Plasma concentration in C57BL/6 mouse at 2.5 mg/kg, po measured at 6 hrs post dose by LC-MS analysis; type: ADME, organism-based
[9] = Total clearance in C57BL/6 mouse at 0.2 mg/kg, iv; type: ADME, organism-based; settings: in vivo
Mus musculus [10] = experiment: Suppression of malonyl-CoA levels in C57BL/6 mouse skeletal muscle at 1 mg/kg, po measured at 6 hrs post dose by LC-MS analysis relative to control; type: functional
[11] = Oral bioavailability in C57BL/6 mouse at 2.5 mg/kg; type: ADME, organism-based; settings: in vivo
[12] = Cmax in C57BL/6 mouse at 2.5 mg/kg, po; type: ADME, organism-based; set-up: dose 2.5 mg/kg, route oral; settings: in vivo
Rattus norvegicus [13] = experiment: Toxicity in rat assessed as histopathological lesions in heart at 50 mg/kg/day, po administered for 4 consecutive days; type: organism-based; settings: in vivo
Mus musculus [14] = experiment: Suppression of malonyl-CoA levels in C57BL/6 mouse skeletal muscle at 2.5 mg/kg, po measured at 6 hrs post dose by LC-MS analysis relative to control; type: functional

Sequence of Cytochrome P450 2C9 (P11712 whole entry): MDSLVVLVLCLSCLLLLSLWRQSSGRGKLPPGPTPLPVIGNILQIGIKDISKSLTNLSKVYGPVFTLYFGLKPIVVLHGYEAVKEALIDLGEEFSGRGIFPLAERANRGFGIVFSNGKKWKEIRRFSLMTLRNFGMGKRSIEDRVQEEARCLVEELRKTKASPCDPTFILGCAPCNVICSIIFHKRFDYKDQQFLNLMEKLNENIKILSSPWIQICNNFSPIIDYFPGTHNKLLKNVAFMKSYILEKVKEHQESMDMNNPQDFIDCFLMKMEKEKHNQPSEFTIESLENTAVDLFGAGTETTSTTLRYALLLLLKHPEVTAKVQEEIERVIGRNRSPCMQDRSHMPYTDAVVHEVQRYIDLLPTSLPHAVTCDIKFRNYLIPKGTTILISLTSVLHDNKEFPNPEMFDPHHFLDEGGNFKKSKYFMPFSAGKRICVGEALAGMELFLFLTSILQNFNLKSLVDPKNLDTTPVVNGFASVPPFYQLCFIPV
Sequence of Cytochrome P450 3A4 (P08684 whole entry): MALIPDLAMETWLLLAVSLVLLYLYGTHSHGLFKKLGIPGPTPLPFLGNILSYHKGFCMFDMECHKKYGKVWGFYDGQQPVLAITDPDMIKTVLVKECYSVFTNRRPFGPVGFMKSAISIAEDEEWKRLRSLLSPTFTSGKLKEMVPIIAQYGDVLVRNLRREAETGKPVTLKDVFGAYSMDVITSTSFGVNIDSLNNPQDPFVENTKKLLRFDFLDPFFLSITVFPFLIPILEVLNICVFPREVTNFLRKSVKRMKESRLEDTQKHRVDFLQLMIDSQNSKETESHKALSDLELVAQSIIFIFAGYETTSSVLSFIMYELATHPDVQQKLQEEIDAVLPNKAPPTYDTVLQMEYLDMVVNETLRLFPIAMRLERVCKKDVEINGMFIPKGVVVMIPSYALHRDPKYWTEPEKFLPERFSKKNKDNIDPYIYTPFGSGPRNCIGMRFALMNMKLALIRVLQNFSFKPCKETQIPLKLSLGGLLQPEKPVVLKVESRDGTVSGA
Sequence of Cytochrome P450 2C19 (P33261 whole entry): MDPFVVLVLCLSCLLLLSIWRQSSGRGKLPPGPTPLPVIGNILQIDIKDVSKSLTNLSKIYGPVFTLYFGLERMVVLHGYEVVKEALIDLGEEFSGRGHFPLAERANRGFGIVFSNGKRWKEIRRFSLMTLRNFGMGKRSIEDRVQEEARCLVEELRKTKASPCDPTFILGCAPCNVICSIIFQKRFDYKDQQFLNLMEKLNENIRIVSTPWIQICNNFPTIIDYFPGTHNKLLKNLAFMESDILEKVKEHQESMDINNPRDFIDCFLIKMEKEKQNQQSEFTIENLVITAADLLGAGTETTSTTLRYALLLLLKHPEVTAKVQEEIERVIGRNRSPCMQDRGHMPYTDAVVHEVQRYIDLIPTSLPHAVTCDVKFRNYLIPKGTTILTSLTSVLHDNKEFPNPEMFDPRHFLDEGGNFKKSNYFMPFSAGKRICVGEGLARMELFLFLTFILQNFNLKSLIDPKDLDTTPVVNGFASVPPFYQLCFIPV
Sequence of Cytochrome P450 2D6 (P10635 whole entry): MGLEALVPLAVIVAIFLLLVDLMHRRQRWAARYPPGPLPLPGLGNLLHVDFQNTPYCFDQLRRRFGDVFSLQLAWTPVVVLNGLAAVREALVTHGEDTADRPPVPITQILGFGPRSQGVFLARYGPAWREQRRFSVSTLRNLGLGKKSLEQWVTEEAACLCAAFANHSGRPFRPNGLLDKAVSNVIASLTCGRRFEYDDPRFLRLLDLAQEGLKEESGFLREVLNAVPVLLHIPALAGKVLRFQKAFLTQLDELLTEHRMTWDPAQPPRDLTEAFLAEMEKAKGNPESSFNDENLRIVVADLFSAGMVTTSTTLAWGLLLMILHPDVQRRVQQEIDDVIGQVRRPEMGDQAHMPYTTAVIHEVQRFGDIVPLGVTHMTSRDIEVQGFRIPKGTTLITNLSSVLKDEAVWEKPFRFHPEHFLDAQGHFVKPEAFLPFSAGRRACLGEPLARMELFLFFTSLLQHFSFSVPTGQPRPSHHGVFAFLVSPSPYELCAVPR
Sequence of Acetyl-CoA carboxylase 2 (O00763 whole entry): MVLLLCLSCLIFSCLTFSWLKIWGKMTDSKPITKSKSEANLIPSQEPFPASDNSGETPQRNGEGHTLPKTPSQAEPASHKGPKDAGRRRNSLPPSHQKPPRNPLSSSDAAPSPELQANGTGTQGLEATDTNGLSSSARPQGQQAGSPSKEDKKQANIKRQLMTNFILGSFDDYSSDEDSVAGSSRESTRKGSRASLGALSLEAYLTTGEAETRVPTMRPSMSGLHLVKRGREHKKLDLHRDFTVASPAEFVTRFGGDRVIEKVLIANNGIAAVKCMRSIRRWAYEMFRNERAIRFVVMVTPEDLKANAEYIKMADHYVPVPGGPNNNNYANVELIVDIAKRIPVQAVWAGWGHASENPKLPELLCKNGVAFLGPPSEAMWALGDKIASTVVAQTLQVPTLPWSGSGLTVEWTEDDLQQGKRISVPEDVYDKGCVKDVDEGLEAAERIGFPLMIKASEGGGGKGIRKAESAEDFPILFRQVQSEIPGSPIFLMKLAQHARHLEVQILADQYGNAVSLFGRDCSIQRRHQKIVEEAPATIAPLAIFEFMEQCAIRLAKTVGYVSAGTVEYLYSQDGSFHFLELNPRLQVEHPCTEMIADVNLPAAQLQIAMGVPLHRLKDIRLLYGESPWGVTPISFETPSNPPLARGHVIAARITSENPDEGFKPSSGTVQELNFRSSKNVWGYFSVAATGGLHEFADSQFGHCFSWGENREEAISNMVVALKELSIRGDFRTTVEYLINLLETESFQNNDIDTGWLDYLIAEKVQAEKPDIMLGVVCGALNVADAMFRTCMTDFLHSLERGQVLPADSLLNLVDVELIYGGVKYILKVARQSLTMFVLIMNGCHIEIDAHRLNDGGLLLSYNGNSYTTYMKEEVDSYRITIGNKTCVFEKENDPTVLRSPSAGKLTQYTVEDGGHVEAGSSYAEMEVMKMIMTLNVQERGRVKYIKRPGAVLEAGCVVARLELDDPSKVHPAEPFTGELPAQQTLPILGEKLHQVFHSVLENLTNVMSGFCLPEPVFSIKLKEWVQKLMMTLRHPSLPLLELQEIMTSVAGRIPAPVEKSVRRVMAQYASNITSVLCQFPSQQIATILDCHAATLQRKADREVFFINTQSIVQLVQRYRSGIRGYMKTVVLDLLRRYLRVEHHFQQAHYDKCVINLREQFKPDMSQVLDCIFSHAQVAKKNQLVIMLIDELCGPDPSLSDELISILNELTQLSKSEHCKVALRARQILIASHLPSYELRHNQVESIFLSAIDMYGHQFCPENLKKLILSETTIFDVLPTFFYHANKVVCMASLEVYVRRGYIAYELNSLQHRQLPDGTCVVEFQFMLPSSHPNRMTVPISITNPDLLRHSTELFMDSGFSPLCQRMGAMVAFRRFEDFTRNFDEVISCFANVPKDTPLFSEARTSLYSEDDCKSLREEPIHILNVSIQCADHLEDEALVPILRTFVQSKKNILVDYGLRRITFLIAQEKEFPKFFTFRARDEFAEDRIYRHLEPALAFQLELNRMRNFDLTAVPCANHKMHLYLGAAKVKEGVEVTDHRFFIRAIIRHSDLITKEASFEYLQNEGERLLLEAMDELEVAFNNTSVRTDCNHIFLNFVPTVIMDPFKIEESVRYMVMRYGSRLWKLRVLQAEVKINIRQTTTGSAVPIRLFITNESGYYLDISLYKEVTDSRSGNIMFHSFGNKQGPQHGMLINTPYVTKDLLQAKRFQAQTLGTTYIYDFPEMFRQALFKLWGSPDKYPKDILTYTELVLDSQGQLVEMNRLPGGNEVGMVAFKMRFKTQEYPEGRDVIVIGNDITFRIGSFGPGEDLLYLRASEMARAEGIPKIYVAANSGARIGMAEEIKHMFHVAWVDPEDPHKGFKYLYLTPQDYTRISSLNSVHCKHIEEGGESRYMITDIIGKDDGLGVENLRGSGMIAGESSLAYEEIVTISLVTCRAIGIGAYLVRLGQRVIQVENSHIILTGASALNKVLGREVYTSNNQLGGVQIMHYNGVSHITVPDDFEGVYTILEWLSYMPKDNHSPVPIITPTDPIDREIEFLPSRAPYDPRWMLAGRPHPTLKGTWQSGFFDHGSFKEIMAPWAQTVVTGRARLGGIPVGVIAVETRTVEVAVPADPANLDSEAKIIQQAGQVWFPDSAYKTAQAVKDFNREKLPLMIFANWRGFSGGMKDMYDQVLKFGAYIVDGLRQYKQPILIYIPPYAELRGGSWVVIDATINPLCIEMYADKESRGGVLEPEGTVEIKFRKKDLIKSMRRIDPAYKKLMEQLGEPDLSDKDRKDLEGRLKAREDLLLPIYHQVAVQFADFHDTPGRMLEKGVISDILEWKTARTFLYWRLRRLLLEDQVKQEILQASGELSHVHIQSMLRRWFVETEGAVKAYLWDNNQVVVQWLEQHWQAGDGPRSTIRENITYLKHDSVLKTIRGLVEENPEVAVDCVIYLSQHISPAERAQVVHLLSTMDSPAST

| Compound | Ratio IC50 (Homo sapiens) | IC50 (Cytochrome P450 2C9) [µM] | IC50 (Cytochrome P450 3A4) [µM] | remaining at 0.5 h [1] [%] | IC50 (Acetyl-CoA carboxylase 1) [µM] | IC50 (Cytochrome P450 2D6) [µM] | remaining at 0.5 h [2] [%] | IC50 (Acetyl-CoA carboxylase 2) [µM] | IC50 (Cytochrome P450 1A2) [µM] | IC50 (Cytochrome P450 2C19) [µM] | other results |
| --- | --- | --- | --- | --- | --- | --- | --- | --- | --- | --- | --- |
| CC(=O)N[C@@H](C)/C=C/c1ccc(Oc2cc3sc(C)nc3cc2Cl)nc1 | 110 | > 20 | > 20 | 83 | 52.1 | > 20 | 94 | 0.473 | > 20 | > 20 |  |
| CC(=O)N[C@@H](C)/C=C/c1ccc(Oc2ccc3nc(C(C)C)sc3c2F)nc1 | 17 | > 20 | > 20 | 51 | 0.035 | > 20 | 84 | 0.0021 | > 20 | > 20 |  |
| CCOc1ccc(Oc2ccc(/C=C/[C@H](C)NC(C)=O)cn2)c(Cl)c1 | > 2170 | > 20 | > 20 |  | > 100 | > 20 |  | 0.046 | > 20 | > 20 |  |
| CC(=O)N[C@@H](C)/C=C/c1ccc(Oc2ccc3sc(C(C)C)nc3c2Cl)nc1 | 21 | 14 | > 20 | 77 | 0.858 | > 20 | 88 | 0.04 | > 20 | 11 |  |
| CC(=O)N[C@@H](C)/C=C/c1cnc(Oc2ccc(OCC3CC3)cc2Cl)nc1 | > 2080 | > 20 | > 20 |  | > 100 | > 20 |  | 0.048 | > 20 | > 20 |  |
| CC(=O)N[C@@H](C)/C=C/c1ccc(Oc2ccc(OCC(F)F)cc2Cl)nc1 | > 1190 | > 20 | > 20 |  | > 100 | > 20 |  | 0.084 | > 20 | > 20 |  |
| CC(=O)N[C@@H](C)/C=C/c1ccc(Oc2ccc3nc(C(C)(C)O)sc3c2Cl)nc1 | 315 | 17 | > 20 | 96 | 3.15 | > 20 | 92 | 0.01 | > 20 | > 20 |  |
| CC(=O)N[C@@H](C)/C=C/c1ccc(Oc2ccc(OCCF)cc2Cl)nc1 | > 537 | > 20 | > 20 |  | > 100 | > 20 |  | 0.186 | > 20 | > 20 |  |
| CC(=O)N[C@@H](C)/C=C/c1ccc(Oc2ccc3nc(C(C)C)sc3c2C(F)(F)F)nc1 | 126 | 14 | 17 | 83 | 7.45 | > 20 | 87 | 0.059 | > 20 | 18 |  |
| CC(=O)N[C@@H](C)/C=C/c1cnc(Oc2ccc(OCC3CC3)cc2Cl)cn1 | 30 | > 20 | > 20 |  | 0.75 | > 20 |  | 0.025 | > 20 | > 20 |  |
| CC(=O)N[C@@H](C)/C=C/c1ccc(Oc2ccc(OCC3CC3)cc2Cl)nn1 | > 327 | > 20 | 18 |  | > 100 | > 20 |  | 0.306 | > 20 | > 20 |  |
| CC(=O)N[C@@H](C)/C=C/c1ccc(Oc2ccc3nc(C)sc3c2Cl)nc1 | 469 | > 20 | > 20 | 75 | 12.2 | > 20 | 87 | 0.026 | > 20 | > 20 |  |
| CC(=O)N[C@@H](C)/C=C/c1nnc(Oc2ccc(OCC3CC3)cc2Cl)s1 | > 395 | 15 | > 20 |  | > 100 | > 20 |  | 0.253 | > 20 | > 20 |  |

Now those with a lower IC50 (Cytochrome P450 2C9), led by results:

| Ratio IC50 (Homo sapiens) | IC50 (Cytochrome P450 2C9) [µM] | IC50 (Cytochrome P450 3A4) [µM] | remaining at 0.5 h [1] [%] | IC50 (Acetyl-CoA carboxylase 1) [µM] | IC50 (Cytochrome P450 2D6) [µM] | remaining at 0.5 h [2] [%] | IC50 (Acetyl-CoA carboxylase 2) [µM] | IC50 (Cytochrome P450 1A2) [µM] | IC50 (Cytochrome P450 2C19) [µM] | Compound | other results |
| --- | --- | --- | --- | --- | --- | --- | --- | --- | --- | --- | --- |
| 70 | 13 | 19 | 52 | 0.303 | > 20 | 83 | 0.0043 | > 20 | 18 | CC(=O)N[C@@H](C)/C=C/c1ccc(Oc2ccc3nc(C(C)C)sc3c2Cl)nc1 |  |
| > 1270 | 8.6 | > 20 |  | > 100 | > 20 |  | 0.079 | > 20 | > 20 | CCOc1ccc(Oc2ncc(/C=C/[C@H](C)NC(C)=O)s2)cc1 |  |
| 63 | 8.2 | > 20 |  | 1.94 | > 20 |  | 0.031 | > 20 | 18 | CC(=O)N[C@@H](C)/C=C/c1cnc(Oc2ccc(OCC3CC3)cc2)s1 |  |
| > 1320 | 2.7 | > 20 |  | > 100 | > 20 |  | 0.076 | > 20 | 6.5 | COC(=O)N[C@@H](C)/C=C/c1cnc(Oc2ccc(OC(C)C)cc2)s1 |  |
| 809 | 4.4 | > 20 |  | 53.4 | > 20 |  | 0.066 | > 20 | > 20 | CC(=O)N[C@@H](C)/C=C/c1cnc(Oc2ccc(OC(C)C)cc2)s1 |  |
| 82 | 10 | > 20 |  | 37.2 | > 20 |  |  | > 20 | > 20 | CC(=O)N[C@@H](C)/C=C/c1cnc(Oc2ccc(OCC3CC3)cc2Cl)n1C |  |
| 98 | 3.5 | > 20 |  | 1.27 | > 20 |  | 0.013 | > 20 | 14 | CC(=O)N[C@@H](C)/C=C/c1cnc(Oc2ccc(OCC3CC3)cc2Cl)s1 |  |
| 1030 | 13 | > 20 | 100 | 1.95 | > 20 | 91 | 0.0019 | > 20 | 18 | CCOc1nc2ccc(Oc3ccc(/C=C/[C@H](C)NC(C)=O)cn3)c(Cl)c2s1 | AUC [3]: 99.8 µg·h/mL; Activity (Rattus norvegicus [4]): Non-Toxic; AUC(0-t) at 24 h [5]: 620 µg·h/mL; concentration at 6 h [6]: 1130 ng/mL; Cmax [7]: 34600 ng/mL; concentration at 6 h [8]: 2620 ng/mL; clearance [9]: 0.354 mL/min/kg; Activity (Mus musculus [10]): 20%; bioavailability [11]: 83.5%; Cmax [12]: 4230 ng/mL; Activity (Rattus norvegicus [13]): Non-Toxic; Activity (Mus musculus [14]): 41% |
| 140 | 9.5 | 16 |  | 0.964 | > 20 |  |  | > 20 | > 20 | CC(=O)N[C@@H](C)/C=C/c1ccc(Oc2ccc(OCC3CC3)cc2Cl)nc1 |  |

Source: ChEMBL document CHEMBL4219273, “Discovery of a novel olefin derivative as a highly potent and selective acetyl-CoA carboxylase 2 inhibitor with in vivo efficacy” (Bioorg Med Chem Lett, 2018)
